Patent publication US7015212B1, “Thiazepine inhibitors of HIV-1 integrase” (The United States of America as represented by the …, priority 1999, dated 2006)
Where “and” joins values, the source holds several entries; their conditions need not be identical. Equal values may be shown once. Read-outs that look alike come from different tables or passages of the source.

Experiments:
[1] = test system: T4 lymphocytes (CEM cell line); assay: Cytotoxicity in uninfected CEM cells (XTT toxicity control); conditions: read-out: Cell data (μM) CC50: 50% cytotoxic concentration; uninfected CEM cells, 6 days, XTT
Experimental: (§1) The anti-HIV drug testing was performed at NCI based on a protocol described by Weislow et al.^36 All compounds were dissolved in dimethyl sulfoxide and diluted 1:100 in cell culture medium. Exponentially growing T4 lymphocytes (CEM cell line) were added at 5000 cells per well. Frozen virus stock solutions were thawed immediately before use, suspended in complete medium to yield the desired multiplicity of infection (m. o. i.≈0.1), and added to the microtiter wells, resulting in a 1:200 final dilution of the compound. Uninfected cells with the compound served as a toxicity control, and infected and uninfected cells without the compound served as basic controls.
(§2) Cultures were incubated at 37° C. in a 5% CO2 atmosphere for 6 days. The tetrazolium salt, XTT was added to all wells, and cultures were incubated to allow formazan color development by viable cells. Individual wells were analyzed spectrophotometrically to quantitate formazan production, and in addition were viewed microscopically for detection of viable cells and confirmation of protective activity.

[2] = biological target: T1, purified HIV-1 integrase (HIV-1 IN) (Human immunodeficiency virus type 1 group M subtype B, UniProt P12497); assay: biochemical;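 also: integrase at 200 nM exposed to inhibitor 30 min at 30 °C, then 1 h with 20 nM 5′-32P-labelled 21-mer DNA, 3′-processing or strand transfer products quantified on denaturing gels versus no-drug enzyme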
Experimental: (§3) To analyze the extent of 3′-processing and strand transfer using 5′-end labeled substrates, AE118 was 5′-end labeled using T4 polynucleotide kinase (Gibco BRL) and γ[^32P]-ATP (Dupont-NEN). To determine the extent of 30mer target strand generation during disintegration, AE157 was 5′-end labeled and annealed to AE156, AE146, and AE117. The kinase was heat-inactivated and AE117 was added to the same final concentration. The mixture was heated at 95° C., allowed to cool slowly to room temperature, and run through a G-25 Sephadex quick spin column (Boehringer Mannheim, Indianapolis, Ind.) to separate annealed double-stranded oligonucleotide from unincorporated label.
(§4) To determine the extent of 3′-processing and strand transfer, integrase was preincubated at a final concentration of 200 nM with the inhibitor in a reaction buffer (50 mM NaCl, 1 mM HEPES, pH 7.5, 50 μM EDTA, 50 μM dithiothreitol, 10% glycerol (w/v), 7.5 mM MnCl2, 0.1 mg/ml bovine serum albumin, 10 mM 2-mercaptoethanol, 10% dimethyl sulfoxide, and 25 mM MOPS, pH 7.2) at 30° C. for 30 minutes. Then, 20 nM of the 5′-end ^32P labeled linear oligonucleotide substrate was added, and incubation was continued for an additional one hour. Reactions were quenched by the addition of an equal volume (16 μ) of loading dye (98% deionized formamide, 10 mM EDTA, 0.025% xylene cyanol and 0.025% bromophenol blue). An aliquot (5 μl) was electrophoresed on a denaturing 20% polyacrylamide gel (0.09 M tris-borate pH 8.3, 2 mM EDTA, 20% acrylamide, 8M urea).
(§5) Gels were dried, exposed in a PhosphorImager cassette, and analyzed using a Molecular Dynamics PhosphorImager (Sunnyvale, Calif.). Percent inhibition was calculated using the following equation: % I=100×[1−(D−C)/(N−C)] where C, N, and D are the fractions of 21-mer substrate converted to 19-mer (3′-processing product) or strand transfer products for DNA alone (C), DNA plus integrase (N), and integrase plus drug (D). All IC50 values were determined by plotting the drug concentration versus percent inhibition, and determining the concentration which produced 50% inhibition.

[3] = Cytotoxicity in uninfected CEM cells (XTT toxicity control); conditions: human, uninfected CEM cells (T4 lymphocytes)
Experimental: as §1, §2

[4] = biological target: T2, HIV-1 IN (Human immunodeficiency virus type 1 group M subtype B, UniProt P12497); assay: HIV-1 integrase inhibition with Mg+2 as cofactor (gel assay); format: biochemical; conditions: compared with Mn+2, 1000, 333, 111, 37 μM
T2 construct: An expression system for the wild-type integrase and the IN^50–212 (F185K) were obtained from the Laboratory of Molecular Biology, NIDDK; made in house
Experimental: FIGS. 2 and 3 show concentration dependent inhibition of HIV-1 IN by thiazolothiazepines 1, 19, and 20 using Mn^+2 (FIG. 2) and Mg^+2 (FIG. 3) as a cofactor. Lane 1, DNA alone, lanes 2 and 15 DNA and integrase, lanes 3–6, 7–10, 11–14 DNA, integrase, and compounds 1, 19, and 20 at 1000, 333, 111, and 37 μM, respectively. See Table 1 for compound identifiers 1, 19, 20.
A 21-mer oligonucleotide corresponding to the last 21 bases on the HIV-1 viral DNA in the U5 region of long terminal repeat (LTR) was radiolabeled with ^32P. This is shown in the FIGS. 2 and 3 as a band corresponding to DNA alone. Integrase will cleave the last two bases of this DNA in the presence of Mn^+2 or Mg^+2 to give a 19-mer DNA substrate (lane 2) which runs faster on the gel and is indicated as 19-mer on the Figures. When an inhibitor is added this process is blocked, therefore the original 21-mer DNA would not be cut. When an inhibitor is added at various concentrations, percent inhibition at every concentration will be calculated by quantification of the intensity of each band using an Imagequant program.
The gels are run using polyacrylamide according to the standard procedures. Upon completion of electrophoresis run, the gels are dried and exposed to a phosphorimager cassette. The cassettes are analyzed by the phosphorimager, and the bands are shown on a computer screen. The intensity of each band is quantitated, plotted against concentrations of drugs, and the IC50 values are calculated from the graphs.

[5] = test system: HIV-1 infected CEM cells; assay: Anti-HIV assay in cultured CEM cells (NCI XTT protocol); format: cell-based
Experimental: as §1, §2

[6] = biological target: T1, purified HIV-1 integrase (HIV-1 IN)
Experimental: as §3, §4, §5

## O=C1Sc2ccc(Cl)cc2C(=O)N2CCSC12 (racemic) [Compound 2, (±)-7-Chloro-2,3-dihydro-5H-thiazolo[2,3-c][1,4]benzothiazepine-5,11 (11aH)-dione]
[1]
  CC50: > 50 µM

## O=C1Sc2ccc(Br)cc2C(=O)N2CCSC12 (racemic) [Compound 3, (±)-7-Bromo-2,3-dihydro-5H-thiazolo[2,3-c][1,4]benzothiazepine-5,11 (11aH)-dione]
other
  melting point: 219 to 220 °C

## Cc1ccc2c(c1)C(=O)N1CCSC1C(=O)S2 (racemic) [Compound 4, (±)-2,3-Dihydro-7-methyl-5H-thiazolo[2,3-c][1,4]benzothiazepine-5,11 (11aH)-dione]
[2]
  IC50: 55 µM and 64 µM

## O=C1Sc2ccccc2C(=O)N2CSCC12 (racemic) [Compound 5]
[3]
  CC50 at 6 days: > 200 µM
[2]
  IC50: 227 µM and 208 µM

## O=C1Sc2ccc(Cl)cc2C(=O)N2CSCC12 (racemic) [Compound 6, (±)-7-Chloro-1,11a-dihydro-3H,5H,11H-thiazolo[4,3-c][1,4]benzothiazepine-5,11-dione]
[1]
  CC50: > 100 µM
other
  melting point: 204 to 205 °C

## O=C1Sc2ccc(Br)cc2C(=O)N2CSCC12 (racemic) [Compound 7, (±)-7-Bromo-1,11a-dihydro-3H,5H,11H-thiazolo[4,3-c][1,4]benzothiazepine-5,11-dione]
[1]
  CC50: > 200 µM
other
  melting point: 213 to 214 °C

## Cc1ccc2c(c1)C(=O)N1CSCC1C(=O)S2 (racemic) [Compound 8, (±)-1,11a-Dihydro-7-methyl-3H,5H,11H-thiazolo[4,3-c][1,4]benzothiazepine-5,11-dione]
[1]
  CC50: 35 µM

## O=C1Sc2cc([N+](=O)[O-])ccc2C(=O)N2CSCC12 (racemic) [Compound 9, (±)-1,11a-Dihydro-8-nitro-3H,5H,11H-thiazolo[4,3-c][1,4]benzothiazepine-5,11-dione]
[1]
  CC50: > 50 µM
other
  melting point: 231 to 232 °C

## COc1ccc2c(c1)C(=O)N1CSCC1C(=O)S2 (racemic) [Compound 10, (±)-1,11a-dihydro-7-methoxy-3H,5H, 11H-thiazolo[4,3-c][1,4]benzothiazepine-5,11-dione]
[1]
  CC50: > 200 µM

## Cc1ccc2c(c1)C(=O)N1CC[S+]([O-])C1C(=O)S2 (racemic) [Compound 15, (±)-cis-2,3-Dihydro-7-methyl-5H-thiazolo[2,3-c][1,4]benzothiazepine-5,11 (11aH)-dione 1-Oxide]
[3]
  CC50 at 6 days: > 100 µM
[2]
  IC50: 590 ± 350 µM
other
  melting point: 211 to 212 °C

## O=C1Sc2ccccc2C(=O)N2C[S+]([O-])CC12 (racemic) [Compound 16, (±)-cis-1,11a-Dihydro-3H,5H,11H-thiazolo[4,3-c][1,4]benzothiazepine-5,11-dione 2-oxide]
[2]
  IC50: 215 µM and 222 µM and 200 µM and 185 µM

## O=C1Sc2ccc(Cl)cc2C(=O)N2C[S+]([O-])CC12 (racemic) [Compound 17, (±)-cis-7-Chloro-1,11a-dihydro-3H,5H,11H-thiazolo[4,3-c][1,4]benzothiazepine-5,11-dione 2-Oxide]
[2]
  IC50: 280 µM and 200 µM and 260 µM and 215 µM
other
  melting point: 213 to 215 °C

## COc1ccc2c(c1)C(=O)N1C[S+]([O-])CC1C(=O)S2 (racemic) [Compound 18, (±)-cis-1,11a-Dihydro-7-methoxy-3H,5H,11H-thiazolo[4,3-c][1,4]benzothiazepine-5,11-dione 2-Oxide]
[2]
  IC50: 142 µM and 84.5 µM
other
  melting point: 172 to 174 °C

## O=C1Sc2cc3ccccc3cc2C(=O)N2CCSC12 (racemic) [Compound 19, (±)-2,3-Dihydro-5H-naphto[2,3-f]thiazolo[2,3-c][1,4]thiazepine-5,13(13aH)-dione]
[4]
  activity against IN in the presence of Mg+2: active in the presence of Mg^+2 within the same concentration range as in Mn^+2
[3]
  CC50 at 6 days: > 316 µM
[5]
  therapeutic index (TI=CC50/EC50): > 5
[2]
  IC50: 47 ± 6 µM

## O=C1Sc2cc3ccccc3cc2C(=O)N2CSCC12 (racemic) [Compound 20, (±)-1,13a-Dihydro-3H,5H,11H-naphto[2,3-f]thiazolo[4,3-c][1,4]thiazepine-5,13-dione]
[4]
  activity against IN in the presence of Mg+2: active in the presence of Mg^+2 within the same concentration range as in Mn^+2
[3]
  CC50 at 6 days: > 316 µM
[2]
  IC50: 92 µM and 100 µM

## O=C1c2ccccc2SC(O)(c2ccccc2)C2CCCN12 (racemic) [Compound 26, (±)-2,3,11,11a-Tetrahydro-11-hydroxy-11-phenyl-1H,5H-pyrrolo [2,1-c][1,4]benzothiazepin-5-one]
other
  melting point: 137 to 141 °C

## CN1CCN([C@@H]2Sc3ccccc3C(=O)N3CCC[C@@H]23)CC1 (racemic) [Compound 27, (±)-cis-2,3,11,11a-Tetrahydro-11-(4-methylpiperazin-1-yl)-1H,5H-pyrrolo[2,1-c][1,4]benzothiazepin-5-one]
[1]
  CC50: > 125 µM

## CN1CCN(Cc2ccc3n2Cc2ccccc2SC3c2ccccc2)CC1 (racemic) [Compound 31, (±)-3-[(4-Methylpiperazin-1-yl)methyl]-11-phenyl-5H,11H-pyrrolo [2,1-c][1,4]benzothiazepine]
other
  melting point: 161 to 162 °C

## O=C1Sc2ccccc2C(=O)N2CCSC12 (stereo not drawn) [Compound 1]
[4]
  activity against IN in the presence of Mg+2: active in the presence of Mg^+2 within the same concentration range as in Mn^+2
[3]
  CC50 at 6 days: > 200 µM
[5]
  therapeutic index (TI=CC50/EC50): > 1.8
[2]
  IC50: 110 µM and 146 µM

## COc1cc2c(cc1OC)C(=O)N1CSCC1C(=O)S2 (stereo not drawn) [Compound 11]
[3]
  CC50 at 6 days: > 50 µM
[2]
  IC50: 330 µM and 670 µM and 630 µM

## COc1cc2c(cc1OC)C(=O)N1CCCC1C(=O)S2 (stereo not drawn) [Compound 13]
[3]
  CC50 at 6 days: > 200 µM

## O=C1Sc2ccccc2C(=O)N2CCCCC12 (stereo not drawn) [Compound 14]
[3]
  CC50 at 6 days: > 200 µM
[2]
  IC50: 343 µM and 406 µM and 495 µM

## CC(=O)OC1Sc2ccccc2C(=O)N2CCCC12 (stereo not drawn) [Compound 21]
[3]
  CC50 at 6 days: > 200 µM

## COC1Sc2ccccc2C(=O)N2CCCC12 (stereo not drawn) [Compound 22]
[1]
  CC50: > 200 µM

## COc1cc2c(cc1OC)C(=O)N1CCCC1CS2 (stereo not drawn) [Compound 24]
[3]
  CC50 at 6 days: > 200 µM

## O=C1c2ccccc2SC(O)C2CCCN12 (stereo not drawn) [Compound 25]
[3]
  CC50 at 6 days: > 200 µM

## O=C1Sc2ccccc2Cn2cccc21 [Compound 28]
[6]
  IC50: 590 µM and 300 µM
[1]
  CC50: > 200 µM

## CCOC(=O)C1Sc2ccccc2C(=O)n2cccc21 (stereo not drawn) [Compound 29]
[2]
  IC50: > 1000 µM

## CN(C)Cc1ccc2n1C(=O)c1ccccc1SC2c1ccc(F)cc1 (stereo not drawn) [Compound 30]
[2]
  IC50: > 1000 µM
